Earlier results, collected in patent US20240398698A1, “CONAZOLANTIFUNGAL KETOE IN SOLUTION OR SUSPENSION FOR USE IN THE HUMAN EAR” (priority 2023, published 2024).

In the case of `CC(=O)N1CCN(c2ccc(OCC3COC(Cn4ccnc4)(c4ccc(Cl)cc4Cl)O3)cc2)CC1` (stereo not drawn) [Ketoconazole, ketoconazole], the “solubility in acetic acid” value (acetic acid) is listed as “not soluble”, the solubility in alcohol (alcohol) is listed as “soluble” and the solubility in water (water) is listed as “poorly soluble”.
